Test results reported in article PMC7488365 (Acta Pharmaceutica Sinica. B, 2019).

Tests used:
HGC-27 cells [1] = experiment: Transwell migration assay, HGC-27; type: cell-based, human; settings: HGC-27, 48 h
HGC-27 cells [2] = experiment: MTT cell viability assay, HGC-27; settings: Homo sapiens, HGC-27, 72 h, read-out: IC50 cell viability HGC-27
USP28 [3] = molecular target: T1, USP28 (Homo sapiens, UniProt Q96RU2); experiment: biochemical; type: biochemical; settings: read-out: Inhibition rate at 12.5 μmol/L (%)
T1 sequence (Q96RU2 1-700): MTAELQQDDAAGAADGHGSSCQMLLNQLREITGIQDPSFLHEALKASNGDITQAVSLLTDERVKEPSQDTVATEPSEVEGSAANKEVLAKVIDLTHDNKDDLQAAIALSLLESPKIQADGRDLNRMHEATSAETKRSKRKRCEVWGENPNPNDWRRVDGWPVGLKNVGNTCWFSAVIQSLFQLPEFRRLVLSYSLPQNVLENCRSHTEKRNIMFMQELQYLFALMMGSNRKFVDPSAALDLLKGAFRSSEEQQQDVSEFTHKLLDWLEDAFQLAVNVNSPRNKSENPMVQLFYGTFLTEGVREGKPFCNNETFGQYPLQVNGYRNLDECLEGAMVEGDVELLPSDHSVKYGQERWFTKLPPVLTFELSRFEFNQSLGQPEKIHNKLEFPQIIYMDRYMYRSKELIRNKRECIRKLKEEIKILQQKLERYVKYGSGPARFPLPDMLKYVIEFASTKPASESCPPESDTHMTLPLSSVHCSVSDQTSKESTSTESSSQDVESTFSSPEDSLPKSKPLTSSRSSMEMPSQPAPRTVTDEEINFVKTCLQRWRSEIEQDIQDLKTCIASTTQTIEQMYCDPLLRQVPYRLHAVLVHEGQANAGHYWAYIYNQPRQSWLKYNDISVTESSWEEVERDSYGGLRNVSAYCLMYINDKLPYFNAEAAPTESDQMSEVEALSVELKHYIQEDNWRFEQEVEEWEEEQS

GES-1 cells = experiment: cells; settings: Homo sapiens, GES1, 72 h, read-out: IC50 cell viability GES-1
HGC-27 cells [4] = experiment: Colony formation, HGC-27; type: cell-based, human; settings: HGC-27, 0.75, 1.5 and 3.0 μmol/L, 8 days
MGC-803 cells [5] = experiment: cells; settings: Homo sapiens, MGC-803, 72 h, read-out: IC50 cell viability MGC-803
HGC-27 cells [6] = experiment: Wound healing assay, HGC-27; type: cell-based, human; settings: HGC-27, 48 h
USP28 [7] = molecular target: T1, USP28; experiment: Bio-layer interferometry; type: binding
[8] = system: USP28, LSD1 and total c-Myc in HGC-27 cells; experiment: Western blotting of USP28, LSD1 and total c-Myc; type: cell-based, human; settings: HGC-27, 3 h, Western blotting
MGC-803 cells [9] = experiment: Colony formation, MGC-803; type: cell-based, human; settings: MGC-803, 0.75, 1.5 and 3.0 μmol/L, 8 days
USP7 = USP7 (Homo sapiens, UniProt Q93009); experiment: Enzymatic inhibitory activity against USP7; type: biochemical
Sequence of USP7 (Q93009 whole entry, species assumed): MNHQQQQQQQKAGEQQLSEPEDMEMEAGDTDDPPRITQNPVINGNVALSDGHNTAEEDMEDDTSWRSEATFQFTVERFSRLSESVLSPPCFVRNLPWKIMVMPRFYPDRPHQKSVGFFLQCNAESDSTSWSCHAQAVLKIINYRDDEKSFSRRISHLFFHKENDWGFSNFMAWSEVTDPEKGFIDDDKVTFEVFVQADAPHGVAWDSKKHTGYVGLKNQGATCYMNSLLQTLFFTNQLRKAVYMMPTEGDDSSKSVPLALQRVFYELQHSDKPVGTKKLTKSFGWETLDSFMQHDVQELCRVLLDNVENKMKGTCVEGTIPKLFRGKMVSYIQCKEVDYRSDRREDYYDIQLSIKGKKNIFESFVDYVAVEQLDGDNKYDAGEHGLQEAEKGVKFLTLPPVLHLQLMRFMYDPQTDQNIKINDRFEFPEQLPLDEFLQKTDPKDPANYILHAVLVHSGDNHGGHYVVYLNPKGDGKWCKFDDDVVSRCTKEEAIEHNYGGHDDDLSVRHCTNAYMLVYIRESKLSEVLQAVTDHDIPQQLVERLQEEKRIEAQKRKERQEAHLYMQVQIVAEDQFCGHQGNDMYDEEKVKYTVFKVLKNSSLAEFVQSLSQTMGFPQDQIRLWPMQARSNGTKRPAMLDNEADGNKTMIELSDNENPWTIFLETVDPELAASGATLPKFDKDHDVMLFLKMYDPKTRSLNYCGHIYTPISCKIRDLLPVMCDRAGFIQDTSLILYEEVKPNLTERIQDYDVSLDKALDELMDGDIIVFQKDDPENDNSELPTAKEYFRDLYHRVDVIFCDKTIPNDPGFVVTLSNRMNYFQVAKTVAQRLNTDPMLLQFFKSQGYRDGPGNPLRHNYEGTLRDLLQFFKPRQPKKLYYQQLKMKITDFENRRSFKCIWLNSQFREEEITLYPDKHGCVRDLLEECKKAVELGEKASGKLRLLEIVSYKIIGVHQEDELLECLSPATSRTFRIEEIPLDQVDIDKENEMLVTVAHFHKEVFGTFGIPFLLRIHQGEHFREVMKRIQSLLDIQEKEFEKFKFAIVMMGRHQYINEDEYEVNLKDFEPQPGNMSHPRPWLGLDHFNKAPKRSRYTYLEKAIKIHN

HGC-27 cells [10] = experiment: Annexin V-FITC/PI apoptosis analysis; type: cell-based, human
HGC-27 cells [11] = experiment: Cell cycle assay; type: cell-based, human; settings: HGC-27, 24 h
USP28 in MGC-803 cells = molecular target: T2, USP28 in MGC-803 cells (Homo sapiens, UniProt Q96RU2); experiment: Cellular thermal shift target engagement assay, MGC-803; type: cell-based; settings: MGC-803, 0.75 μmol/L, 3 h, 60 °C
T2 sequence (Q96RU2 1-1077): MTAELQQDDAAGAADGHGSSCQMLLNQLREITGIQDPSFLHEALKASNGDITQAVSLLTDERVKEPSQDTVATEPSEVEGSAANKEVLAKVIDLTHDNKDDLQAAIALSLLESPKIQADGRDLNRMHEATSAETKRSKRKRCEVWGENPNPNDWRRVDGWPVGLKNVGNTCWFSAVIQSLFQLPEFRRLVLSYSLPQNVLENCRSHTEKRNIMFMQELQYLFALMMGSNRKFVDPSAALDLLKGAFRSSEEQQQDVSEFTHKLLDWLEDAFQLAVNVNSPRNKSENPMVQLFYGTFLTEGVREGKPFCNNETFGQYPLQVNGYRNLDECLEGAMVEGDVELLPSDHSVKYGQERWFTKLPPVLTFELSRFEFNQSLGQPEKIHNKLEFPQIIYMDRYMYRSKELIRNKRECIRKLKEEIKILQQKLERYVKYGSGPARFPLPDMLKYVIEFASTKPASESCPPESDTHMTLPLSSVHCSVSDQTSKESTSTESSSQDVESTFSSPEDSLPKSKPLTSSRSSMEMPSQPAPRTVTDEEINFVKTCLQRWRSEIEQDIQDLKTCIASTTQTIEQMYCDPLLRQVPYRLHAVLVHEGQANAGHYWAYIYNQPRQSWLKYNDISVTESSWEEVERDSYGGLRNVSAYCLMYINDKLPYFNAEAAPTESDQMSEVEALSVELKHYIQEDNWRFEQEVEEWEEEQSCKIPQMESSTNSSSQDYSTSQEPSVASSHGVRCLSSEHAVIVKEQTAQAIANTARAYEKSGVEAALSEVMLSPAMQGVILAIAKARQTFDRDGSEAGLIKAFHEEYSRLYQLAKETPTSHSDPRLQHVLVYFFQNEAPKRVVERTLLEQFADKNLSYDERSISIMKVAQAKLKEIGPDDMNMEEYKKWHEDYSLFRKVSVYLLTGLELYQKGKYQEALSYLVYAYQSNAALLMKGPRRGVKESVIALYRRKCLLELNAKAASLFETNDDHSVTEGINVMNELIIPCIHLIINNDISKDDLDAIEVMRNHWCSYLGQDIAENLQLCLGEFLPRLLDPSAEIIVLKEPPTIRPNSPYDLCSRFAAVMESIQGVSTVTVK

MGC-803 cells [12] = experiment: Wound healing assay, MGC-803; type: cell-based, human; settings: MGC-803, 48 h
HGC-27 cells [13] = experiment: EdU incorporation assay; type: cell-based, human
MKN45 cells = experiment: cells; settings: Homo sapiens, MKN-45, 72 h, read-out: IC50 cell viability MKN45
MGC-803 cells [14] = experiment: Transwell migration assay, MGC-803; type: cell-based, human; settings: MGC-803, 48 h
USP28 in HGC-27 cells = molecular target: T3, USP28 in HGC-27 cells (Homo sapiens, UniProt Q96RU2); experiment: Cellular thermal shift target engagement assay, HGC-27; type: cell-based; settings: HGC-27, 0.75 μmol/L, 3 h, 60 °C
T3 sequence (Q96RU2 1-1077): T2 sequence (Q96RU2 1-1077)

LSD1 = LSD1 (Homo sapiens, UniProt O60341); experiment: Enzymatic inhibitory activity against LSD1; type: biochemical

**Q.** How did the “cell migration (Transwell)” value (HGC-27 cells [1]) turn out when `CCCSc1nc(NCCN)c2nnn(Cc3ccc(Cl)cc3)c2n1` [Compound 19, N^1-(3-(4-Chlorobenzyl)-5-(propylthio)-3H-[1,2,3]triazolo[4,5-d]pyrimidin-7-yl)ethane-1,2-diamine] was run?
**A.** Its value is “apparently inhibited cell migration”.

**Q.** And the IC50 (HGC-27 cells [2])?
**A.** The IC50 was 0.61 ± 0.45 µM.

**Q.** What about the inhibition at 12.5 µM (USP28 [3]) of the same molecule?
**A.** Its inhibition at 12.5 µM is 90%.

**Q.** And the IC50 (GES-1 cells)?
**A.** The IC50 was 9.19 ± 1.15 µM.

**Q.** And the colony formation (HGC-27 cells [4])?
**A.** The colony formation was “dose-dependently inhibited colony formation”.

**Q.** And the IC50 (MGC-803 cells [5])?
**A.** Its IC50 is 4.95 ± 0.33 µM.

**Q.** What about the wound healing (HGC-27 cells [6]) of the same molecule?
**A.** The wound healing was “apparently suppressed the wound healing”.

**Q.** What about the Kd (USP28 [7]) of the same molecule?
**A.** The Kd was 0.04 µM.

**Q.** And the USP28 expression [8]?
**A.** The USP28 expression was “decreased in a dose-dependent manner”.

**Q.** What about the “protein levels of LSD1 and total c-Myc” value [8] of the same molecule?
**A.** Its value is “decreased correspondingly”.

**Q.** What about the colony formation (MGC-803 cells [9]) of the same molecule?
**A.** The colony formation was “dose-dependently inhibited colony formation”.

**Q.** What about the IC50 (USP7) of the same molecule?
**A.** Its IC50 is greater than 100 µM.

**Q.** And the “apoptotic rate (Annexin V-FITC/PI, Q2)” value (HGC-27 cells [10]; HGC-27, 0.18 μmol/L)?
**A.** The value was 6.5%.

**Q.** And the “apoptotic rate (Annexin V-FITC/PI, Q2)” value (HGC-27 cells [10]; HGC-27, 0.37 μmol/L)?
**A.** The value was 9.3%.

**Q.** What about the “apoptotic rate (Annexin V-FITC/PI, Q2)” value (HGC-27 cells [10]; HGC-27, 0.75 μmol/L) of the same molecule?
**A.** The value was 10.5%.

**Q.** What about the “apoptotic rate (Annexin V-FITC/PI, Q2)” value (HGC-27 cells [10]; HGC-27, 1.5 μmol/L) of the same molecule?
**A.** Its value is 21.2%.

**Q.** And the “percentage of cells in S phase” value (HGC-27 cells [11]; 0.18 μmol/L)?
**A.** The value was 36.02%.

**Q.** What about the “percentage of cells in S phase” value (HGC-27 cells [11]; 0.37 μmol/L) of the same molecule?
**A.** Its value is 38.58%.

**Q.** And the “percentage of cells in S phase” value (HGC-27 cells [11]; 0.75 μmol/L)?
**A.** Its value is 39.27%.

**Q.** And the “percentage of cells in S phase” value (HGC-27 cells [11]; 1.5 μmol/L)?
**A.** The value was 42.98%.

**Q.** What about the “USP28 thermal stabilization (CTSA)” value (USP28 in MGC-803 cells) of the same molecule?
**A.** The value was “stabilized”.

**Q.** What about the wound healing (MGC-803 cells [12]) of the same molecule?
**A.** The wound healing was “apparently suppressed the wound healing”.

**Q.** And the “DNA proliferation (EdU)” value (HGC-27 cells [13])?
**A.** Its value is “suppressed DNA proliferation”.

**Q.** And the IC50 (MKN45 cells)?
**A.** Its IC50 is 1.49 ± 0.98 µM.

**Q.** And the “cell migration (Transwell)” value (MGC-803 cells [14])?
**A.** The value was “apparently inhibited cell migration”.

**Q.** And the “USP28 thermal stabilization (CTSA)” value (USP28 in HGC-27 cells)?
**A.** Its value is “stabilized”.

**Q.** And the IC50 (LSD1)?
**A.** Its IC50 is greater than 100 µM.
